Here are results for one compound from patent US20200000917A1, “METHODS OF PHOTOCHEMICAL TREATMENT FOR WOUND HEALING” (The General Hospital Corporation, priority 2017, published 2020).

Experiment [1] concerns full-thickness, excisional 1 cm by 1 cm wounds on the dorsa of C57BL/6 mice. In words: Histology of harvested wound tissue after photochemical treatment. It is filed as in vivo. The settings on record: days 7, 21 and 42 post wound creation; Rose Bengal solution + KTP laser 532 nm, 60 J/cm2. Here is the method:
By way of example, the above-described system 20 and method 10 were studied in comparison to untreated control wounds. The study was carried out according to the steps illustrated in FIG. 3. Generally, FIG. 3 illustrates a wound creation step 30, an activating agent delivery step 32, an illumination step 34, and a post-treatment step 36. More specifically, at step 30, full-thickness, excisional 1 cm by 1 cm wounds 38 were created on the dorsa of C57BL/6 mice 40 in both a control group of 16 mice and a test group of 16 mice. Additionally, dots 42 were tattooed on the skin around the wound perimeter in both the control and test groups (as shown in step 34) in order to monitor contracture over the course of wound healing. Following step 30, control group wounds were left alone to heal. With respect to the test group, at step 32, a Rose Bengal solution was painted onto wound beds 38 (e.g., as discussed above with respect to process block 12 of FIG. 1). At step 34, the wounds 38 were illuminated by an electromagnetic radiation source 26, in particular, a KTP laser having a 532-nanometer wavelength, with an energy output of 60 Joules per centimeter squared (e.g., as discussed above with respect to process block 14 of FIG. 1). […]
To compare the test and control groups, the area within each tattooed wound perimeter was serially measured over 6 weeks and percent contracture was calculated. […]

Experiment [2] has the same test system. In words: Wound contracture after photochemical treatment (area within tattooed wound perimeter). It is filed as in vivo. Here is the method: By way of example, the above-described system 20 and method 10 were studied in comparison to untreated control wounds. The study was carried out according to the steps illustrated in FIG. 3. Generally, FIG. 3 illustrates a wound creation step 30, an activating agent delivery step 32, an illumination step 34, and a post-treatment step 36. More specifically, at step 30, full-thickness, excisional 1 cm by 1 cm wounds 38 were created on the dorsa of C57BL/6 mice 40 in both a control group of 16 mice and a test group of 16 mice. Additionally, dots 42 were tattooed on the skin around the wound perimeter in both the control and test groups (as shown in step 34) in order to monitor contracture over the course of wound healing. Following step 30, control group wounds were left alone to heal. With respect to the test group, at step 32, a Rose Bengal solution was painted onto wound beds 38 (e.g., as discussed above with respect to process block 12 of FIG. 1). At step 34, the wounds 38 were illuminated by an electromagnetic radiation source 26, in particular, a KTP laser having a 532-nanometer wavelength, with an energy output of 60 Joules per centimeter squared (e.g., as discussed above with respect to process block 14 of FIG. 1). Steps 32 and 34 were conducted immediately after wound creation at step 30. Step 36 illustrates the immediate result of wound treatment, that is, the photobleaching of Rose Bengal dye.
To compare the test and control groups, the area within each tattooed wound perimeter was serially measured over 6 weeks and percent contracture was calculated. Additionally, at 7, 14, 21, and 42 days, mice were euthanized and tissue was harvested for histology.

As for `O=C([O-])c1c(Cl)c(Cl)c(Cl)c(Cl)c1-c1c2cc(I)c(=O)c(I)c-2oc2c(I)c([O-])c(I)cc12.[Na+].[Na+]` [Rose Bengal], the “histological review of wound tissue compared to control group tissue” value in experiment [1] is “increased ingrowth and development of dermal cells, increased vascularity, and appearance of skin appendages earlier and to a greater degree”. Besides, the “more contracture in control wounds than in test group” value in experiment [2] (by day 7) is roughly 20%. The percent contracture in experiment [2] (day 7, Rose Bengal solution painted on wound bed, KTP laser 532 nm, 60 J/cm2, immediately after wound creation, control 80.3±8.5%, p=0.014) amounted to 67.1±17.1%. For the same compound, in experiment [2] (day 42, Rose Bengal solution + KTP laser 532 nm, 60 J/cm2, control 13.6±5.6%, p=0.003), the “wounds contracted to (percentage of initial area of skin around wound perimeter)” value came out at 35.2±2.9%. Besides, in experiment [2] (day 42, p=0.003), the “fold difference in remaining area, test group versus control group” value is on record as 1.59 fold.
